The assay concerns IL-1β release upon NLRP3 activation in peripheral blood mononuclear cells (PBMC). The experiment in a line: PBMC IC50 determination assay: inhibition of IL-1β release upon NLRP3 activation. It counts as cell-based. Particulars: PBMC primed with LPS 3 h, compound 30 min, stimulated with ATP (5 mM) or nigericin (10 μM) 1 h, IL-1β by ELISA (Protocol A) or HTRF (Protocol B). How it is done: PBMC IC50 determination assay. The compounds of the present disclosure were tested for their inhibitory activity against IL-1β release upon NLRP3 activation in peripheral blood mononuclear cells (PBMC).
Protocol A. PBMC were isolated from buffy coats by density gradient centrifugation on Histopaque-1077 (Sigma, cat no. 10771). Isolated cells were seeded into the wells of a 96-well plate and incubated for 3 h with lipopolysaccharide (LPS). Following medium exchange, the compounds of the present disclosure were added (a single compound per well) and the cells were incubated for 30 min. Next, the cells were stimulated either with ATP (5 mM) or nigericin (10 μM) for 1 h and the cell culture media from the wells were collected for further analysis.
The release of IL-1β into the media was determined by a quantitative detection of IL-1β in the media using an IL-1β enzyme-linked immunosorbent assay (ELISA) Ready-SET-Go!, eBioscience cat. No. 88-7261-88. Briefly, in a first step, high affinity binding plates (Corning, Costar 9018 or NUNC Maxisorp Cat No. 44-2404) were coated overnight at 4° C. with specific capture antibody included in the kit (anti-human IL-1β ref. 14-7018-68). Subsequently, plates were blocked with blocking buffer for 1 h at room temperature (rt) and after washing with a buffer (PBS with 0.05% Tween-20) incubated with protein standard and culture media. After 2 h of incubation at rt, plates were washed and incubated with biotinylated detection antibody included in the kit (anti-human IL-1β Biotin ref 33-7110-68) for 1 h at rt. Plates were washed and incubated with HRP-streptavidin for 30 min at rt and washed again. The signal was developed after addition of 3,3′,5,5′-tetramethylbenzidine-peroxidase (TMB) until colour appeared and the reaction was stopped by 2 M H2SO4. A microplate spectrophotometer (BioTek) was used to detect signals with 450 nm. The detection range of IL-1β ELISA was […].
Protocol B. PBMC were isolated from buffy coats by density gradient centrifugation on Histopaque-1077 (Sigma, cat no. 10771). Isolated cells were seeded into the wells (280,000 cells/well) of a 96-well plate and incubated for 3 h with lipopolysaccharide (LPS, 1 μg/mL diluted 1000× from a 1 mg/mL stock solution). The compounds of the present disclosure were added (a single compound per well) and the cells were incubated for 30 min. Next, the cells were stimulated with ATP (5 mM final concentration diluted 20× from a 100 mM stock solution) for 1 h and the cell culture media from the wells were collected for further analysis.
The release of IL-1β into the media was determined by quantitative detection of IL-1β in the media using HTRF®, CisBio cat. No. 62HIL1BPEH. Briefly, cell culture supernatant were dispensed directly into the assay plate containing antibodies labelled with the HTRF® donor and acceptor. A microplate spectrophotometer (BMG) was used to detect signals at 655 nm and 620 nm. The detection range of IL-1β HTRF® was 39-6500 μg/mL.
(ELISA stands for enzyme-linked immunosorbent assay.)

Structures are written as SMILES. Where a name gives a salt, the structure may show the parent alone.

These results are taken from patent publication US20250066369A1, “BICYCLIC PHTHALAZIN-1(2H)-ONE DERIVATIVES AND RELATED USES” (NodThera Limited, priority 2022, published 2025).

What is called IC50 is the concentration that gives 50% inhibition. Low values mean higher potency, high ones lower potency. `CC(C)c1nn(CC(=O)N[C@@H]2CCCN(C3CCC3)C2)c(=O)c2sc(C#N)cc12` [Compound 30, 2-(2-Cyano-4-isopropyl-7-oxo-thieno[2,3-d]pyridazin-6-yl)-N-[(3R)-1-cyclobutyl-3-piperidyl]acetamide] came in with an IC50 (PBMC) of 3000 to 10000 nM. On to `COCc1cc2c(C(C)C)nn(CC(=O)N[C@@H]3CCCN(C4CCC4)C3)c(=O)c2s1` [Compound 31, N-[(3R)-1-Cyclobutyl-3-piperidyl]-2-[4-isopropyl-2-(methoxymethyl)-7-oxo-thieno [2,3-d]pyridazin-6-yl]acetamide hydrochloride], for which the IC50 (PBMC) fell in the range of 1000 to 3000 nM. Same read-out and setting: for `CCc1nn(CC(=O)Nc2ncccn2)c(=O)c2ccc(C3CC3)nc12` [Compound 32, 2-(2-Cyclopropyl-8-ethyl-5-oxo-pyrido[2,3-d]pyridazin-6-yl)-N-pyrimidin-2-yl-acetamide] the value was 100 to 1000 nM. Same read-out and setting: next, `CCc1nn(CC(=O)Nc2ncc(F)cn2)c(=O)c2ccc(C3CC3)nc12` [Compound 33, 2-(2-Cyclopropyl-8-ethyl-5-oxo-pyrido[2,3-d]pyridazin-6-yl)-N-(5-fluoropyrimidin-2-yl)acetamide]: 100 to 1000 nM.

`Cc1nn(CC(=O)Nc2ncccn2)c(=O)c2ccc(C3CC3)nc12` [Compound 34, 2-(2-Cyclopropyl-8-methyl-5-oxo-pyrido[2,3-d]pyridazin-6-yl)-N-pyrimidin-2-yl-acetamide]: the IC50 (PBMC) is 1000 to 3000 nM. `Cc1nn(CC(=O)Nc2ncc(F)cn2)c(=O)c2ccc(C3CC3)nc12` [Compound 35, 2-(2-Cyclopropyl-8-methyl-5-oxo-pyrido[2,3-d]pyridazin-6-yl)-N-(5-fluoropyrimidin-2yl)acetamide] displayed a 50% inhibitory concentration (IC50) (PBMC) of 100 to 1000 nM.

Consider `CCc1nc2c(C(C)C)nn(CC(=O)Nc3ncc(F)cn3)c(=O)c2s1` [Compound 36], for which the IC50 (PBMC) is at most 100 nM.

Compound `CCn1cc2c(=O)n(CC(=O)Nc3ncccn3)nc(CF)c2n1` [Compound 40, 2-(2-Ethyl-7-(fluoromethyl)-4-oxo-2,4-dihydro-5H-pyrazolo[3,4-d]pyridazin-5-yl)-N-(pyrimidin-2-yl)acetamide] returned a half-inhibitory concentration (IC50) (PBMC) of 1000 to 3000 nM. Still for that read-out and setting: next, `CCc1ccc2c(=O)n(CC(=O)Nc3ncccn3)nc(C(C)C)c2n1` [Compound 42]: 100 to 1000 nM. In turn, `CCc1ccc2c(=O)n(CC(=O)Nc3ncc(F)cn3)nc(C(C)C)c2n1` [Compound 43] yielded a half-inhibitory concentration (IC50) (PBMC) of 100 to 1000 nM. `Cc1nn(CC(=O)N[C@@H]2CCCN(C)C2)c(=O)c2ccc(C3CC3)nc12` [Compound 46]: for the setting “PBMC”, the 50% inhibitory concentration (IC50) lay within 1000 to 3000 nM. Under “PBMC”, `Cc1nn(CC(=O)N[C@@H]2CCCN(C3CCC3)C2)c(=O)c2ccc(C3CC3)nc12` [Compound 47] had a half-inhibitory concentration (IC50) of 100 to 1000 nM. On the same count and under the same terms, next, `CC(C)c1nn(C2(C(=O)Nc3ncccn3)CC2)c(=O)c2cn(C(C)C)nc12` [Compound 50, 1-(2,7-Diisopropyl-4-oxo-2,4-dihydro-5H-pyrazolo[3,4-d]pyridazin-5-yl)-N-(pyrimidin-2-yl)cyclopropane-1-carboxamide]: 1000 to 3000 nM; `CC(C)c1nn(C2(C(=O)Nc3ncc(F)cn3)CC2)c(=O)c2cn(C(C)C)nc12` [Compound 51, 1-(2,7-Diisopropyl-4-oxo-2,4-dihydro-5H-pyrazolo[3,4-d]pyridazin-5-yl)-N-(5-fluoropyrimidin-2-yl)cyclopropane-1-carboxamide]: 100 to 1000 nM. Still for that read-out and setting: next, `CCc1cc2c(=O)n(CC(=O)Nc3ncccn3)nc(CC)c2o1` [Compound 54, 2-(2,7-Diethyl-4-oxofuro[2,3-d]pyridazin-5(4H)-yl)-N-(pyrimidin-2-yl)acetamide]: 100 to 1000 nM; `CCc1cc2c(=O)n(CC(=O)Nc3ncc(F)cn3)nc(CC)c2o1` [Compound 55, 2-(2,7-Diethyl-4-oxofuro[2,3-d]pyridazin-5(4H)-yl)-N-(5-fluoropyrimidin-2-yl)acetamide]: 100 to 1000 nM; `CC(C)c1nn(CC(=O)Nc2ncc(F)cn2)c(=O)c2cc(Cl)sc12` [Compound 59, 2-(2-Chloro-7-isopropyl-4-oxothieno[2,3-d]pyridazin-5(4H)-yl)-N-(5-fluoropyrimidin-2-yl)acetamide]: 100 to 1000 nM. Same read-out and setting: for `CC(C)c1nn(CC(=O)Nc2ncc(F)cn2)c(=O)c2sc(Cl)cc12` [Compound 60, 2-(2-Chloro-4-isopropyl-7-oxothieno[2,3-d]pyridazin-6(7H)-yl)-N-(5-fluoropyrimidin-2-yl)acetamide] the value was 100 to 1000 nM. Turning to `CC(C)c1nn(CC(=O)Nc2ncc(F)cn2)c(=O)c2sc(Cl)nc12` [Compound 61], under “PBMC”, the IC50 lay within 1000 to 3000 nM. For the compound `CC(C)c1nn(CC(=O)Nc2ncccn2)c(=O)c2cc(Br)oc12` [Compound 62, 2-(2-Bromo-7-isopropyl-4-oxofuro[2,3-d]pyridazin-5(4H)-yl)-N-(pyrimidin-2-yl)acetamide], the half-maximal inhibitory concentration (IC50) (PBMC) was in the range of 100 to 1000 nM. Consider `Cc1cnc(NC(=O)Cn2nc(C(C)C)c3nn(C(C)C)cc3c2=O)nc1` [Compound 63, 2-(2,7-Diisopropyl-4-oxo-pyrazolo[3,4-d]pyridazin-5-yl)-N-(5-methylpyrimidin-2-yl)acetamide], for which, for the setting “PBMC”, the 50% inhibitory concentration (IC50) is 100 to 1000 nM. `CC(C)c1nn(CC(=O)Nc2ncccn2)c(=O)c2sc(Br)cc12` [Compound 64, 2-(2-Bromo-4-isopropyl-7-oxothieno[2,3-d]pyridazin-6(7H)-yl)-N-(pyrimidin-2-yl)acetamide]: the half-inhibitory concentration (IC50) (PBMC) lay in the range of 100 to 1000 nM. With `CC(C)c1nn(CC(=O)Nc2ncccn2)c(=O)c2cn(C3CC3)nc12` [Compound 65, 2-(2-Cyclopropyl-7-isopropyl-4-oxo-2,4-dihydro-5H-pyrazolo[3,4-d]pyridazin-5-yl)-N-(pyrimidin-2-yl)acetamide], the IC50 (PBMC) fell in the range of 100 to 1000 nM. `CC(C)c1nn(C2(C(=O)Nc3ncccn3)CC2)c(=O)c2cn(C3CC3)nc12` [Compound 66, 1-(2-Cyclopropyl-7-isopropyl-4-oxo-2,4-dihydro-5H-pyrazolo[3,4-d]pyridazin-5-yl)-N-(pyrimidin-2-yl)cyclopropane-1-carboxamide] registered a half-maximal inhibitory concentration (IC50) of 3000 to 10000 nM. Consider `CC(C)c1nn(CC(=O)Nc2ncc(Cl)cn2)c(=O)c2cn(C(C)C)nc12` [Compound 67, N-(5-Chloropyrimidin-2-yl)-2-(2,7-diisopropyl-4-oxo-2,4-dihydro-5H-pyrazolo[3,4-d]pyridazin-5-yl)acetamide], for which the half-maximal inhibitory concentration (IC50) (PBMC) fell in the range of 100 to 1000 nM. Still for that read-out and setting: next, `CC(C)c1nn(CC(=O)N[C@H]2C[C@@](C)(O)C2)c(=O)c2cn(C(C)C)nc12` [Compound 68, 2-(2,7-Diisopropyl-4-oxo-2,4-dihydro-5H-pyrazolo[3,4-d]pyridazin-5-yl)-N-((cis)-3-hydroxy-3-methylcyclobutyl)acetamide]: 1000 to 3000 nM. Consider `CCc1cc2c(C(C)C)nn(CC(=O)N[C@H]3C[C@@](C)(O)C3)c(=O)c2s1` [Compound 69, 2-(2-Ethyl-4-isopropyl-7-oxothieno[2,3-d]pyridazin-6(7H)-yl)-N-((cis)-3-hydroxy-3-methylcyclobutyl)acetamide], for which, under “PBMC”, the IC50 lay within 100 to 1000 nM. In turn, `CC(C)c1nn(C2(C(=O)Nc3ncccn3)CC2)c(=O)c2cn(C3CC3)nc12` [Compound 70, 1-(2-Cyclopropyl-7-isopropyl-4-oxo-2,4-dihydro-5H-pyrazolo[3,4-d]pyridazin-5-yl)-N-(pyrimidin-2-yl)cyclopropane-1-carboxamide] gave an IC50 of 10000 to 50000 nM. Consider `CC(C)c1nn(CC(=O)Nc2ncccn2)c(=O)c2cn(C3CCC3)nc12` [Compound 71, 2-(2-Cyclobutyl-7-isopropyl-4-oxo-2,4-dihydro-5H-pyrazolo[3,4-d]pyridazin-5-yl)-N-(pyrimidin-2-yl)acetamide], for which the IC50 (PBMC) lay within 1000 to 3000 nM.
